Laboratory results taken from patent publication US20150306002A1, “3-HYDROXY-4-OXO-4H-PYRAN- OR 3-HYDROXY-4-OXO-1,4-DIHYDROPYRIDINE DERIVATIVES AS PROTEIN-ADHESIVE ACTIVE SUBSTANCES” (MERCK PATENT GMBH, priority 2012, published 2015).

What was measured:
[1] = Determination of the protein affinity in the lysine model (HPTLC); settings: 10 mg in 5 ml THF made up to 10 ml with lysine solution (200 mg/l water), 35° C., HPTLC detection at 254 nm and 366 nm; for reaction with lysine in a Maillard reaction / detectability of starting substance after 1 h: sample after 1 h
Experimental: In each case, 10 mg of the substances according to Example 1 and Example 2 are weighed out into a 10 ml volumetric flask and dissolved in 5 ml of tetrahydrofuran (THF). The volumetric flask is then made up to the mark with a lysine solution in distilled water. The concentration of the lysine solution is 200 mg/I of water. The solution is stirred in the volumetric flask at 35° C. for 24 h. Samples are taken after 1 h and after 24 h. 5 μl of each of these samples are pipetted onto the start zone of an HPTLC silica gel 60 […] plate (Merck Art. 1.05628) using a micropipette. For development of the HPTLC plate, the eluent consisting of THF/heptane in the ratio 75/25 containing 0.1 vol % of formic acid is used. After development, detection is carried out at 254 nm and 366 nm in a CAMAG ATS4, and the Rf values are determined.

[2] = Investigation in the Liquidskin model (L*-a*-b* values, UV/VIS spectrometer); settings: RT, 3 hrs
Experimental: 1 mmol of the substance according to Example 1 (2-methyl-4-oxo-4H-pyran-3-yl 2-(4-dibutylamino-2-hydroxybenzoyl)benzoate) is dissolved in 94 ml of ethylene glycol and 6 ml of water (potassium hydrogenphthalate-buffered, pH=4) with 1 mmol of DL-lysine and stirred at RT for 3 hrs. (=Liquidskin model). The L*-a*-b* values of this solution are subsequently measured using a UV/VIS spectrometer (Varian Cary-100) and compared with the starting values.

[3] = 1 mmol substance + 1 mmol DL-lysine in 94 ml ethylene glycol and 6 ml water (pH=4), compared with starting values

| Compound | reaction with lysine in a Maillard reaction / detectability of starting substance after 1 h [1] | reaction with lysine in a Maillard reaction / detectability of starting substance after 24 h ([1]; sample after 24 h) | delta L* [2, 3] | delta a* [2, 3] | delta b* [2, 3] | colour change of lysine ([2]; Liquidskin model) |
| --- | --- | --- | --- | --- | --- | --- |
| COc1ccc(/C=C/C(=O)Oc2c(C)occc2=O)cc1 [Example 2, 2-methyl-4-oxo-4H-pyran-3-yl 2-(E)-3-(4-methoxyphenyl)acrylate] | can still be detected | reaction is complete | – | – | – | – |
| CCCCN(CCCC)c1ccc(C(=O)c2ccccc2C(=O)Oc2c(C)occc2=O)c(O)c1 [Example 1, 2-methyl-4-oxo-4H-pyran-3-yl 2-(4-dibutylamino-2-hydroxybenzoyl)benzoate] | completely reacted with lysine | – | −4.07 | −2.75 | +7.83 | exhibits a colour change of lysine |
